Results taken from patent US8461160B2, “Dihydropyrimidinones” (Hoffmann-La Roche, Inc., priority 2009, dated 2013).

Target: T1, BACE2 (Homo sapiens, UniProt Q9Y5Z0)
T1 construct: BACE2 enzyme ectodomain (derived from plasmid “pET17b-T7-hu proBACE2”) was prepared as described in Ostermann et al; T7 tag (N); made in house
T1 sequence (Q9Y5Z0 21-473 limits assumed): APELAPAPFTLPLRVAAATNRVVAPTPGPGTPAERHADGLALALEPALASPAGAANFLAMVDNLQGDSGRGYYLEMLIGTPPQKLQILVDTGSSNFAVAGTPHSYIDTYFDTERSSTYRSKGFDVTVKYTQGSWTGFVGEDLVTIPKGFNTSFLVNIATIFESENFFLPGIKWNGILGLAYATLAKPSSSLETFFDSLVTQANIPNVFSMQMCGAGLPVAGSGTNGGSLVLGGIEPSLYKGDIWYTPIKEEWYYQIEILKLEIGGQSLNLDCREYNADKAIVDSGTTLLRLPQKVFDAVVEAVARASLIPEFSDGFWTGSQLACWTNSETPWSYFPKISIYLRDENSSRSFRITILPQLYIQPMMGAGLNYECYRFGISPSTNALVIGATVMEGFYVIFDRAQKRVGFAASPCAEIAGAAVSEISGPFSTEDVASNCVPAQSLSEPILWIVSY
Assay: Fluorescent-peptide cleavage assay for BACE2 inhibition
Type: biochemical
Details: BACE2 enzyme ectodomain, fluorescent peptide WS EVNLD AEFRC-MR121, assay buffer pH 4.5, room temperature
Method: Fluorescent-Peptide Cleavage Assay for BACE2 Inhibition
The pro-enzyme was stored at 4° C. at a concentration of 70 μg/ml.
A fluorescent peptide with the amino acid sequence WS EVNLD AEFRC-MR121 was synthesised and a stock solution of 1.5 mM in DMSO prepared and stored at −20° C. MR121 is a fluorophore with an excitation wavelength of 630 nm and emission wavelength of 695 nm. The MR121 fluorescence is quenched by the N-terminal tryptophan until the peptide is cleaved by BACE2.
Assays were all made in a Corning 384-well black polystyrene non-binding surface microtitre plate with clear flat bottom and using a Plate:Vision (Perkin Elmer) fluorescence reader. To perform the assay an 80 nM solution of BACE2 was prepared in assay buffer (assay buffer is 100 mM Na-acetate; 20 mM EDTA; 0.05% BSA; pH 4.5) and incubated at room temperature for 1 hour to activate the enzyme. 39 μl of the activated BACE2 was placed in each assay well, followed by 1 μl compound to be tested at an appropriate concentration in 100% DMSO. The plate was then mixed and incubated for 10 minutes at room temperature.
The assay readout is the rate of change of fluorescence intensity giving a relative measure of BACE2 activity. Small values correspond to high inhibition and larger values to low inhibition. […] IC50 values were determined using these assay values generated for a range of inhibitor concentrations and the curve fitting software XLfit (IDBS) using the Sigmoidal Dose-Response Model.

Row | IC50 | SMILES
1 | 18 nM | CN1C(=O)C[C@@](C)(c2cccc(NC(=O)c3ccc(F)cn3)c2)N=C1N [Example 27, 5-Fluoro-pyridine-2-carboxylic acid [3-((S)-2-amino-1,4-dimethyl-6-oxo-1,4,5,6-tetrahydro-pyrimidin-4-yl)-phenyl]amide]
2 | 48 nM | CN1C(=O)C[C@@](C)(c2cccc(NC(=O)c3cc(Cl)ccn3)c2)N=C1N [Example 29, 4-Chloro-pyridine-2-carboxylic acid [3-((S)-2-amino-1,4-dimethyl-6-oxo-1,4,5,6-tetrahydro-pyrimidin-4-yl)-phenyl]-amide]
3 | 220 nM | Cc1cccc(C(=O)Nc2cccc([C@]3(C)CC(=O)N(C)C(N)=N3)c2)n1 [Example 32, 6-Methyl-pyridine-2-carboxylic acid [3-((S)-2-amino-1,4-dimethyl-6-oxo-1,4,5,6-tetrahydro-pyrimidin-4-yl)-phenyl]-amide]
4 | 6420 nM | Cc1ncc(C(=O)Nc2cccc([C@]3(C)CC(=O)N(C)C(N)=N3)c2)cn1 [Example 35, 2-Methyl-pyrimidine-5-carboxylic acid [3-((S)-2-amino-1,4-dimethyl-6-oxo-1,4,5,6-tetrahydro-pyrimidin-4-yl)-phenyl]-amide]
5 | 42 nM | CN1C(=O)C[C@@](C)(c2cccc(NC(=O)c3c[nH]c(=O)cn3)c2)N=C1N [Example 36, 5-Oxo-4,5-dihydro-pyrazine-2-carboxylic acid [3-((S)-2-amino-1,4-dimethyl-6-oxo-1,4,5,6-tetrahydro-pyrimidin-4-yl)-phenyl]-amide]
6 | 11 nM | CC[C@@]1(c2cccc(NC(=O)c3ccc(Cl)cn3)c2)CC(=O)N(C)C(N)=N1 [Example 39, 5-Chloro-pyridine-2-carboxylic acid [3-((S)-2-amino-4-ethyl-1-methyl-6-oxo-1,4,5,6-tetrahydro-pyrimidin-4-yl)-phenyl]-amide]
7 | 39 nM | CC[C@@]1(c2cccc(NC(=O)c3ccccn3)c2)CC(=O)N(C)C(N)=N1 [Example 40, Pyridine-2-carboxylic acid [3-((S)-2-amino-4-ethyl-1-methyl-6-oxo-1,4,5,6-tetrahydro-pyrimidin-4-yl)-phenyl]-amide]
8 | 7 nM | CN1C(=N)N[C@](C)(c2cc(NC(=O)c3ccc(Cl)cn3)ccc2F)CC1=O [Example 45, 5-Chloro-pyridine-2-carboxylic acid [3-((S)-2-amino-1,4-dimethyl-6-oxo-1,4,5,6-tetrahydro-pyrimidin-4-yl)-4-fluoro-phenyl]amide]
9 | 8 nM | CN1C(=O)C[C@@](C)(c2cc(NC(=O)c3ccccn3)ccc2F)N=C1N [Example 47, Pyridine-2-carboxylic acid [3-((S)-2-amino-1,4-dimethyl-6-oxo-1,4,5,6-tetrahydro-pyrimidin-4-yl)-4-fluoro-phenyl]amide]
10 | 9 nM | CN1C(=N)N[C@](C)(c2cc(NC(=O)c3ccc(C(F)(F)F)cn3)ccc2F)CC1=O [Example 48, 5-Trifluoromethyl-pyridine-2-carboxylic acid [3-((S)-2-amino-1,4-dimethyl-6-oxo-1,4,5,6-tetrahydro-pyrimidin-4-yl)-4-fluoro-phenyl]amide]
11 | 33 nM | C[C@@]1(c2cccc(NC(=O)c3ccc(Cl)cn3)c2)CC(=O)NC(N)=N1 [Example 51, 5-Chloro-pyridine-2-carboxylic acid [3-((S)-2-amino-4-methyl-6-oxo-1,4,5,6-tetrahydro-pyrimidin-4-yl)-phenyl]amide]

Continued, molecule first:

Row | SMILES | IC50
12 | CN1C(=O)C[C@@](C)(c2cccc(NC(=O)c3cnc(Cl)cn3)c2)N=C1N [Example 25, 5-Chloro-pyrazine-2-carboxylic acid [3-((S)-2-amino-1,4-dimethyl-6-oxo-1,4,5,6-tetrahydro-pyrimidin-4-yl)-phenyl]-amide] | 10 nM
13 | CN1C(=O)C[C@@](C)(c2cccc(NC(=O)c3ccncc3)c2)N=C1N [Example 26, N-[3-((S)-2-Amino-1,4-dimethyl-6-oxo-1,4,5,6-tetrahydro-pyrimidin-4-yl)-phenyl]-isonicotinamide] | 960 nM
14 | CN1C(=O)C[C@@](C)(c2cccc(NC(=O)c3ncccc3Cl)c2)N=C1N [Example 28, 3-Chloro-pyridine-2-carboxylic acid [3-((S)-2-amino-1,4-dimethyl-6-oxo-1,4,5,6-tetrahydro-pyrimidin-4-yl)-phenyl]amide] | 18 nM
15 | Cc1ccnc(C(=O)Nc2cccc([C@]3(C)CC(=O)N(C)C(N)=N3)c2)c1 [Example 30, 4-Methyl-pyridine-2-carboxylic acid [3-((S)-2-amino-1,4-dimethyl-6-oxo-1,4,5,6-tetrahydro-pyrimidin-4-yl)-phenyl]-amide] | 150 nM
16 | CN1C(=O)C[C@@](C)(c2cccc(NC(=O)c3cccc(Cl)n3)c2)N=C1N [Example 31, 6-Chloro-pyridine-2-carboxylic acid [3-((S)-2-amino-1,4-dimethyl-6-oxo-1,4,5,6-tetrahydro-pyrimidin-4-yl)-phenyl]-amide] | 30 nM
17 | CN1C(=O)C[C@@](C)(c2cccc(NC(=O)c3cccnc3)c2)N=C1N [Example 33, N-[3-((S)-2-Amino-1,4-dimethyl-6-oxo-1,4,5,6-tetrahydro-pyrimidin-4-yl)-phenyl]-nicotinamide] | 1100 nM
18 | CN1C(=O)C[C@@](C)(c2cccc(NC(=O)c3ccccc3)c2)N=C1N [Example 34, N-[3-((S)-2-Amino-1,4-dimethyl-6-oxo-1,4,5,6-tetrahydro-pyrimidin-4-yl)-phenyl]-benzamide] | 200 nM
19 | CN1C(=O)C[C@@](C)(c2cccc(NC(=O)c3ncccc3-c3ccccc3)c2)N=C1N [Example 37, 3-Phenyl-pyridine-2-carboxylic acid [3-((S)-2-amino-1,4-dimethyl-6-oxo-1,4,5,6-tetrahydro-pyrimidin-4-yl)-phenyl]-amide] | 21 nM
20 | Cc1nc(C(=O)Nc2cccc([C@]3(C)CC(=O)N(C)C(N)=N3)c2)co1 [Example 38, 2-Methyl-oxazole-4-carboxylic acid [3-((S)-2-amino-1,4-dimethyl-6-oxo-1,4,5,6-tetrahydro-pyrimidin-4-yl)-phenyl]-amide] | 9 nM
21 | CC[C@@]1(c2cccc(NC(=O)c3ccc(Cl)s3)c2)CC(=O)N(C)C(N)=N1 [Example 41, 5-Chloro-thiophene-2-carboxylic acid [3-((S)-2-amino-4-ethyl-1-methyl-6-oxo-1,4,5,6-tetrahydro-pyrimidin-4-yl)-phenyl]-amide] | 95 nM
22 | CC[C@@]1(c2cccc(NC(=O)c3cccc(Cl)n3)c2)CC(=O)N(C)C(N)=N1 [Example 42, 6-Chloro-pyridine-2-carboxylic acid [3-((S)-2-amino-4-ethyl-1-methyl-6-oxo-1,4,5,6-tetrahydro-pyrimidin-4-yl)-phenyl]-amide] | 125 nM
23 | CC[C@@]1(c2cccc(NC(=O)c3ncccc3Cl)c2)CC(=O)N(C)C(N)=N1 [Example 43, 3-Chloro-pyridine-2-carboxylic acid [3-((S)-2-amino-4-ethyl-1-methyl-6-oxo-1,4,5,6-tetrahydro-pyrimidin-4-yl)-phenyl]-amide] | 87 nM
24 | CC[C@@]1(c2cccc(NC(=O)c3ncc(Cl)cn3)c2)CC(=O)N(C)C(N)=N1 [Example 44, 5-Chloro-pyrimidine-2-carboxylic acid [3-((S)-2-amino-4-ethyl-1-methyl-6-oxo-1,4,5,6-tetrahydro-pyrimidin-4-yl)-phenyl]-amide] | 7 nM
25 | CN1C(=O)C[C@@](C)(c2cc(NC(=O)c3ncc(Cl)cn3)ccc2F)N=C1N [Example 46, 5-Chloro-pyrimidine-2-carboxylic acid [3-((S)-2-amino-1,4-dimethyl-6-oxo-1,4,5,6-tetrahydro-pyrimidin-4-yl)-4-fluoro-phenyl]amide] | 14 nM
26 | CCN1C(=O)C[C@@](C)(c2cccc(NC(=O)c3ccc(Cl)cn3)c2)N=C1N [Example 49, 5-Chloro-pyridine-2-carboxylic acid [3-((S)-2-amino-1-ethyl-4-methyl-6-oxo-1,4,5,6-tetrahydro-pyrimidin-4-yl)-phenyl]amide] | 15 nM
27 | C[C@@]1(c2cccc(NC(=O)c3ccc(Cl)cn3)c2)CC(=O)N(Cc2ccccc2)C(N)=N1 [Example 50, 5-Chloro-pyridine-2-carboxylic acid [3-((S)-2-amino-1-benzyl-4-methyl-6-oxo-1,4,5,6-tetrahydro-pyrimidin-4-yl)-phenyl]amide] | 10 nM
